Consider 21 molecules from publication PMC3045100, “Cell-Penetrating Penta-Peptides (CPP5s): Measurement of Cell Entry and Protein-Transduction Activity” (Pharmaceuticals, 2010).

Residues, ends and D or L forms follow the SMILES beside them. *: point of attachment. 5FAM = O=C1OC2(c3ccc(O)cc3Oc3cc(O)ccc32)c2ccc(C(=O)*)cc21

For the first data set, the system named is DAMI cells. The experiment in a line: Cell-penetration activity of Fam-labeled CPP5s, cellular fluorescence by FACS and/or microscopy. On the set-up: key to Cell Penetration, cell entry confirmed by microscopy only: Cell entry of some peptides was confirmed by microscopy only, and these peptides are indicated with a ‘+’ without a percentage value. Conditions: peptides Fam-labeled on the N-terminus, 200 μM, 3 h, 37 °C, fluorescence intensity of cells by FACS, mean of triplicate samples. The data set is classed as cell-based, human. The procedure: Figure 1 Cell-penetration activity of CPP5s. a. List of cell-penetrating penta-peptides (CPP5s). […] Peptide sequences are color-coded to show the constant amphipathic amino acid arrangement in each CPP5. Cell-penetration activity was determined by fluorescence intensity of cells (DAMI cells: a human megakaryocytic cancer cell line) incubated with fluorescein (Fam)-labeled peptides (200 μM) for 3 h at 37 °C as described in Experimental Procedures. Fam was labeled on the N-terminus of all peptides examined. Cells were analyzed by FACS and/or microscopy. The activity of each peptide is shown as a percentage of the activity of KLPVM. Each value represents the mean of triplicate samples. Cell entry of some peptides was confirmed by microscopy only, and these peptides are indicated with a ‘+’ without a percentage value. For cytoprotective activity (right column), the information is based on previous studies and the activity was determined by the protection of cells from Bax overexpression and other apoptotic stimuli such as etoposide treatment. b to e. Cell entry of Fam-labeled VPTLK, KLPVM, TAT, and poly-arginine (R8). HeLa cells were incubated with Fam-labeled VPTLK, KLPVM (200 μM), Fam-TAT (10 μM), and Fam-R8 (10 μM) for 1 h at 37 °C. Images are at 20× magnification. f. Comparison of the cytotoxicity of CPP5 and TAT. Primary cultured mouse embryonic fibroblast (MEF) cells were treated with various concentrations of peptides for 24 h as indicated. Then, apoptosis was analyzed as described in Experimental Procedures. Each bar represents the mean of triplicate samples and standard error. TEXT PRINTED IN THE PICTURE: (a) VPMLK: Cell Penetration (%): 97 ± 4.3; Cytoprotection: + | (a) VPTLK: Cell Penetration (%): 61 ± 1.7; Cytoprotection: + | (a) VPALR: Cell Penetration (%): 79 ± 1.5; Cytoprotection: + | (a) VSALK: Cell Penetration (%): 90 ± 3; Cytoprotection: N.D. | (a) PMLKE: Cell Penetration (%): 65 ± 3.7; Cytoprotection: + | (a) VPALK: Cell Penetration (%): 71 ± 2.2; Cytoprotection: + | (a) VSLKK: Cell Penetration (%): +; Cytoprotection: - | (a) VSGKK: Cell Penetration (%): +; Cytoprotection: - | (a) KLPVM: Cell Penetration (%): 100 ± 2.3; Cytoprotection: - | (a) IPMIK: Cell Penetration (%): 47 ± 1.4; Cytoprotection: - | (a) KLGVM: Cell Penetration (%): +; Cytoprotection: - | (a) KLPVT: Cell Penetration (%): +; Cytoprotection: - | (a) VPMIK: Cell Penetration (%): +; Cytoprotection: N.D. | (a) IPALK: Cell Penetration (%): +; Cytoprotection: N.D. | (a) IPMLK: Cell Penetration (%): +; Cytoprotection: N.D. | (a) VPTLQ: Cell Penetration (%): 70 ± 4; Cytoprotection: - | (a) QLPVM: Cell Penetration (%): +; Cytoprotection: - | (a) ELPVM: Cell Penetration (%): +; Cytoprotection: - | (a) VPTLE: Cell Penetration (%): 80 ± 1.9; Cytoprotection: N.D.
CPP5s that were designed based on the Bax-binding domain of Ku70 of several species are named Bax-Inhibiting Peptides (BIPs); they are VPMLK, PMLKE, VPTLK, VPALR, and VPALK. VPMLK and PMLKE were designed from human Ku70, and the same sequence exists in the Ku70 homologues of dog and monkey. VPTLK and VPALR are based on mouse and rat Ku70, respectively. VPALK was designed from cattle Ku70, and the same sequence exists in Ku70 of the African clawed frog. Cytoprotective activities of these BIPs have been previously reported, both in cell culture and animal models. […] The observed variation in cell-entering activity of Fam-labeled-CPP5s is shown in Figure 1a as a percentage of the activity of KLPVM. In all cases, Fam was attached to the N-terminal amino acid. For some CPP5s, cell-penetration activity was confirmed by detection of an intracellular fluorescent signal by microscopy. These latter results are indicated with ‘+’ symbols, and a quantitative comparison with the activity of KLPVM was not performed. […]
(In general: Flow cytometry measures light scatter and fluorescence of single cells or particles in a stream.)
Take “IPMIK [cell-penetrating penta-peptide (CPP5)]”: the “Cell Penetration (%), percentage of the activity of KLPVM” value (from here on “Cell Penetration (%), percentage”) is 47 ± 1.4%. In the case of KLPVM, the “Cell Penetration (%), percentage” value was determined as 100 ± 2.3%. Consider PMLKE, for which the “Cell Penetration (%), percentage” value was determined as 65 ± 3.7%.

Turning to VPALK, the “Cell Penetration (%), percentage” value was 71 ± 2.2%. On the same count and under the same terms, for VPALR the value was 79 ± 1.5%; for VPMLK, 97 ± 4.3%; for “VPTLE [cell-penetrating penta-peptide (CPP5)]”, 80 ± 1.9%.

As for “VPTLQ [cell-penetrating penta-peptide (CPP5)]”, the “Cell Penetration (%), percentage” value turned out to be 70 ± 4%. For “VSALK [cell-penetrating penta-peptide (CPP5)]”, the “Cell Penetration (%), percentage” value was determined as 90 ± 3%.

Still in this data set, the particulars now being: peptides Fam-labeled on the N-terminus, 200 μM, 3 h, 37 °C, intracellular fluorescent signal by microscopy, no comparison with KLPVM.
Take “ELPVM [cell-penetrating penta-peptide (CPP5)]”: the “Cell Penetration, cell entry confirmed by microscopy only” value (“Cell Penetration, cell entry confirmed” for short) is “+”. The same measure, in the same setting: for “IPALK [cell-penetrating penta-peptide (CPP5)]” the value was “+”.

Regarding “IPMLK [cell-penetrating penta-peptide (CPP5)]”, the “Cell Penetration, cell entry confirmed” value is listed as “+”. Turning to “KLGVM [cell-penetrating penta-peptide (CPP5)]”, the “Cell Penetration, cell entry confirmed” value is given as “+”. Same read-out and setting: for “KLPVT [cell-penetrating penta-peptide (CPP5)]” the value was “+”; for “QLPVM [cell-penetrating penta-peptide (CPP5)]”, “+”. The same measure, in the same setting: for “VPMIK [cell-penetrating penta-peptide (CPP5)]” the value was “+”; for “VSGKK [cell-penetrating penta-peptide (CPP5)]”, “+”; for “VSLKK [cell-penetrating penta-peptide (CPP5)]”, “+”.

Another data set has as its system Primary cultured mouse embryonic fibroblast (MEF) cells. The experiment in a line: Cytotoxicity (apoptosis, Hoechst nuclear staining) of CPP5 and TAT. The data set is classed as cell-based.
Conditions: not given
The procedure: List of cell-penetrating penta-peptides (CPP5s). […] Peptide sequences are color-coded to show the constant amphipathic amino acid arrangement in each CPP5. […] Fam was labeled on the N-terminus of all peptides examined. Cells were analyzed by FACS and/or microscopy. The activity of each peptide is shown as a percentage of the activity of KLPVM. Each value represents the mean of triplicate samples. Cell entry of some peptides was confirmed by microscopy only, and these peptides are indicated with a '+' without a percentage value. For cytoprotective activity (right column), the information is based on previous studies and the activity was determined by the protection of cells from Bax overexpression and other apoptotic stimuli such as etoposide treatment. b to e. Cell entry of Fam-labeled […], and poly-arginine (R8). […] Comparison of the cytotoxicity of CPP5 and TAT. Primary cultured mouse embryonic fibroblast (MEF) cells were treated with various concentrations of peptides for 24 h as indicated. Then, apoptosis was analyzed as described in Experimental Procedures. Each bar represents the mean of triplicate samples and standard error.
Turning to KLPVM, the “Cytotoxic effect at 1.6 mM in the cell culture medium” value is on record as “did not show significant cytotoxic effects”.

In the next data set the test system is HeLa cells. In words: Effect of pinocytosis and endocytosis inhibitors on cell entry of Fam- or Tamra-labeled peptides. In kind it is cell-based. Conditions: serum-free DMEM, cytochalasin D 10 µM 30 min pre-treatment, then Tamra-labeled peptide 1 h, VPTLK 30 μM, R8 10 μM, FACS, mean of three experiments and standard error. As for the experimental part: HeLa cells were incubated with each inhibitor in serum-free DMEM for 30 min, followed by incubation for 1 h with Fam-labeled CPP5 peptides (30 μM). Then, the cells were extensively washed with Hanks’ Buffered Salt Solution (HBSS) and complete DMEM, prior to the detection of fluorescence by microscopy and FACS. None of amiloride, chlorpromazine, cytochalasin D, Filipin III, nocodazole and methyl-beta-cyclodextrin blocked the entry of Fam-labeled VPTLK and KLPVM into HeLa cells. […] As a control experiment to validate the effectiveness of these inhibitors, FITC-transferrin (for chlorpromazine) and rhodamine-labeled EGF (for cytochalasin D and amiloride) were used. […] To compare the cell-penetrating mechanism between CPP5s and arginine-rich CPPs, the uptake of TAT and R8 was also examined in the presence of these inhibitors.
(§1) Figure 2 Mechanism of cell entry of CPP5s. a and b. […] Cells were incubated with peptides for 1 h and the cellular fluorescence intensity was measured by fluorescence microscopy equipped with image analysis software (for Fam-labeled peptides) or FACS (for Tamra-labeled peptides) as described in Experimental Procedures. […] The results are shown as percentages of the fluorescence intensity of inhibitor-treated cells (the intensity of non-treated cells is designated as 100%). […]
With Tamra-VPTLK [Tamra-labeled VPTLK], the “Relative Fluorescence Intensity (No Inhibitor=100%), Cytochalasin D, Tamra-labeled peptides” value was found to be 57±4%.

The next data set has as its system HeLa cells. In words: FACS analysis of cell penetration of Fam-VPTLK versus medium concentration. The data set is classed as cell-based. The conditions noted are these: 3 h, up to 1.6 mM in medium, triplicate samples. The procedure:
For examination of the cell-penetrating activity of 5,6-carboxyfluorescein (Fam)-labeled CPP5 peptides (Fam-VPMLK, Fam-VPTLK), DAMI cells and HeLa cells (5.0×10^4 cells/mL) were incubated with different concentrations of Fam-labeled peptides for different time periods. Excess peptides were removed by extensive washing with Hanks’ buffered saline solution (HBSS) as previously reported and cellular entry of Fam-labeled peptides was analyzed using a fluorescence microscope (Nikon; TE200), a confocal scanning laser microscope (Leica; TCS SP2), and a FACS instrument (XL Aria), or a Coulter EPICS® XL-MCR.
Regarding `CC(C)C[C@H](NC(=O)[C@@H](NC(=O)[C@@H]1CCCN1C(=O)[C@@H](NC(=O)c1ccc2c(c1)C(=O)OC21c2ccc(O)cc2Oc2cc(O)ccc21)C(C)C)[C@@H](C)O)C(=O)N[C@@H](CCCCN)C(=O)O` [Fam-VPTLK] (5FAM-VPTLK-OH), the “Cell entry of Fam-VPTLK as a function of medium concentration” value is listed as “linear increase up to the maximum concentration examined”.

The next data set has as its system Jurkat cells. In words: Cell entry in cells lacking caveolin-mediated endocytosis. In kind it is cell-based. Conditions: cells reported to lack caveolin-mediated endocytotic activity; data not shown. The source says:
Chinese hamster ovary (CHO) A745 cells lack proteoglycans in the plasma membrane, and this cell line has been used to determine whether proteoglycans are required for CPP entry. […] (Figure 3c and d). The cell-penetrating activity of CPP5s was also examined in Jurkat cells that are reported to lack caveolin-mediated endocytotic activity.
`CSCC[C@H](NC(=O)[C@@H](NC(=O)[C@@H]1CCCN1C(=O)[C@H](CC(C)C)NC(=O)[C@H](CCCCN)NC(=O)c1ccc2c(c1)C(=O)OC21c2ccc(O)cc2Oc2cc(O)ccc21)C(C)C)C(=O)O` [Fam-KLPVM] (5FAM-KLPVM-OH): the “Entry into Jurkat cells” value is on record as “able to enter Jurkat cells”. Still for that read-out and setting: for `CC(C)C[C@H](NC(=O)[C@@H](NC(=O)[C@@H]1CCCN1C(=O)[C@@H](NC(=O)c1ccc2c(c1)C(=O)OC21c2ccc(O)cc2Oc2cc(O)ccc21)C(C)C)[C@@H](C)O)C(=O)N[C@@H](CCCCN)C(=O)O` [Fam-VPTLK] (5FAM-VPTLK-OH) the value was “able to enter Jurkat cells”.

A further data set concerns lysosomes of HeLa cells and DAMI cells. In words: Co-localization of Fam-VPTLK with lysosomes (LysoTracker red). Conditions: Fam-VPTLK 50 μM and LysoTracker 100 nM, 1 h, 37 °C, microscopy. The data set is classed as cell-based.
Excerpt: Lysosomes are known to contain molecules which have entered the cell through pinocytosis. To determine whether CPP5s use pinocytotic pathways for their cell entry, the localizations of Fam-labeled CPP5s and lysosomes (labeled by LysoTracker® Red) were compared. […] In contrast, FITC-labeled transferrin and LysoTracker-Red co-localized extensively, which is consistent with the understanding that transferrin enters cells through receptor-mediated endocytosis (Figure 2c).
as §1, with “b. […] Microscopic analysis of the co-localization of Fam-VPTLK with lysosome-staining dye (LysoTracker™ red DND-99, L7528 Invitrogen). Hela cells (a) and DAMI cells (b) were incubated with Fam-VPTLK (50 μM) and LysoTracker (100 nM) for 1 h at 37 °C. c. FITC-labeled Transferin (FITC-Transferin) co-localized with lysosome. HeLa cells were incubaled with FITC-transferin (100 nM) and LysoTracker (100 nM) for 1 h at 37 °C. d.” for “b.”
As to `CC(C)C[C@H](NC(=O)[C@@H](NC(=O)[C@@H]1CCCN1C(=O)[C@@H](NC(=O)c1ccc2c(c1)C(=O)OC21c2ccc(O)cc2Oc2cc(O)ccc21)C(C)C)[C@@H](C)O)C(=O)N[C@@H](CCCCN)C(=O)O` [Fam-VPTLK] (5FAM-VPTLK-OH), the Co-localization with lysosomes result was “partially co-localizes with lysosomes”.
